The numbers were not newly measured in patent publication US11103501B2, “Dry powder formulation of azole derivative for inhalation” (priority 2011, dated 2021), which cites them from elsewhere.

By solubility is commonly meant the dissolved amount per volume that the medium holds. In the case of `CCC(C)n1ncn(-c2ccc(N3CCN(c4ccc(OCC5COC(Cn6cncn6)(c6ccc(Cl)cc6Cl)O5)cc4)CC3)cc2)c1=O` (centres unmarked) [itraconazole], the water solubility was under 1 µg/mL. Also, the solubility (pII 7) is under 1 µg/mL.
